Literature values as cited in US20180169172A1, “COMPOUND AND METHOD FOR REDUCING APPETITE, FATIGUE AND PAIN” (priority 2018, published 2018).
Read-outs that look alike come from different tables or passages of the source.

Tests used:
mice = conditions: even upon oral administration
[1] = biological target: μ-subtype opioid receptor (MOR) (Homo sapiens, UniProt P35372)
gastrointestinal transit = conditions: subcutaneous, mice
pain = conditions: by mouth, immediate-release formulation
[2] = microplate reader determination
[3] = not given; remark: listed apart in the source
[4] = not given; remark: listed apart in the source
[5] = not given; remark: listed apart in the source
rodents = conditions: dose levels of 800-900 mg/kg in rodents
rats = conditions: 200 mg/kg in rats; mitragynine given orally
Kratom users = conditions: even after chronic and high dosage consumption
animal = animal studies, versus codeine
skeletal muscle = conditions: rat, in vivo
[6] = system: compound nerve action potential; conditions: 2 mg/mL
[7] = nine subjects, oral Kratom tea, loading dose

Sequence of μ-subtype opioid receptor (MOR) (P35372 whole entry): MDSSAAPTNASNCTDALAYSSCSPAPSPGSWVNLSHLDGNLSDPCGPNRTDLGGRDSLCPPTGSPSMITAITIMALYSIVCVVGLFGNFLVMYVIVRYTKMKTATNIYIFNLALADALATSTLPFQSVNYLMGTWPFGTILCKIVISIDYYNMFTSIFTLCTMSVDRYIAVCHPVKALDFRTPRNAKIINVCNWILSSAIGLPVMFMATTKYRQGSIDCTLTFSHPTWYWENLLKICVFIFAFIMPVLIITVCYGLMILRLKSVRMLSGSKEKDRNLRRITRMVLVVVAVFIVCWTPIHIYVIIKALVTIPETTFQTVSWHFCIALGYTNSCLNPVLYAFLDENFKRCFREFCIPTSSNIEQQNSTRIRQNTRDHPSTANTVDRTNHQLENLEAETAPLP

In the case of `CC[C@@H]1CN2CC[C@@]3(O)C(=Nc4cccc(OC)c43)[C@@H]2C[C@@H]1/C(=C\OC)C(=O)OC` [7-hydroxymitragynine, (αE,2S,3S,7aS,12bS)-3-ethyl-1,2,3,4,6,7,7a,12b-octahydro-7a-hydroxy-8-methoxy-α-(methoxymethylene)-indolo [2,3-a]quinolizine-2-acetic acid methyl ester], the “analgesic potency relative to morphine” value (mice) is given as “several times more potent analgesic than morphine”, the “agonism at μ-subtype opioid receptor” value [1] is given as “selective and full agonists” and the gastrointestinal transit (gastrointestinal transit) is given as “caused an inhibition”.

For `COc1cccc(C2(O)CCCCC2CN(C)C)c1` (stereo not shown) [Tramadol, tramadol], the “onset of pain relief” value (pain) is given as “within an hour”.

For `CC[C@@H]1CN2CCc3c([nH]c4cccc(OC)c34)[C@@H]2C[C@@H]1/C(=C\OC)C(=O)OC` [mitragynine, (αE,2S,3S,12bS)-3-ethyl-1,2,3,4,6,7,12,12b-octahydro-8-methoxy-α-(methoxymethylene)-indolo[2,3-a]quinolizine-2-acetic acid methyl ester], the pKa [2] is listed as 8.08±0.04, the logP is listed as 1.73 and the stability in acid ([3]; acidic environments) is listed as “acid labile”. For the same compound, the water solubility ([3]; water) was under 100 µg/mL, the solubility ([3]; water and basic media) was “poor solubility in water and basic media” and the “total drug release in dissolution” value ([4]; simulated gastric fluid (SGF)) was “higher”. The “total drug release in dissolution” value ([4]; simulated intestinal fluid (SIF)) was “prolonged and incomplete”, the “urine excretion of unchanged form” value ([5]; 24-hour period) was 0.14% and the “apparent volume of distribution” value [5, 7] was 38.04 ± 24.32 L/kg. The terminal half-life [5, 7] was 23.24 ± 16.07 h, the “time to reach the maximum plasma concentration” value [5, 7] was 0.83 ± 0.35 h and the toxicity (rodents) was “no toxicity”. The lethality (rats) was “lethal effects”, the “mortalities following consumption alone” value (Kratom users) was “no reports of mortalities” and the “agonism at μ-subtype opioid receptor” value [1] was “selective and full agonists”. The antinociceptive effect (animal) was “comparable to those of codeine”, the cough-suppressant effect (animal) was “comparable to those of codeine” and the skeletal muscle relaxation (skeletal muscle) was “produced skeletal muscle relaxation”. The “nerve conduction, amplitude and duration of compound nerve action potential” value [6] was “blocked”, the “2-deoxy-D-glucose-stimulated gastric acid secretion” value (gastric acid secretion; administration into fourth ventricle of anesthetized rats, reversed by naloxone) was “inhibition” and the “basal gastric acid secretion” value (gastric acid secretion; administration into the lateral ventricle) was “did not alter”.
